Consider one compound from publication PMC8838898, “Identification of Novel Cannabinoid CB2 Receptor Agonists from Botanical Compounds and Preliminary Evaluation of Their Anti-Osteoporotic Effects” (Molecules, 2022).

For one data set, the target named is T1, CB2R (Homo sapiens, UniProt P34972).
T1 construct: expressed in transfected cells; host or cells: HEK293 cells stably transfected with pIRES2-EGFP-CB2, pGL4.29 [luc2P/CRE/Hygro] and pRL-TK
The data set can be described thus: double luciferase reporter screening system in HEK293-CB2 cells. It is filed as cell-based. The following applies: 1 μM, 6-h treatment. How it is done:
To generate the HEK293-CB2 cells, 5 × 10^5 HEK293 cells were cultured in a 60 mm culture dish for 12 h, washed with PBS, and then transfected with Lipofectamine 3000 reagent containing a test reporter plasmid, control reporter plasmid encoding Renilla luciferase, and effector plasmid. The ratio of the transfection plasmid pIRES2-EGFP-CB2, pGL4.29 [luc2P/CRE/Hygro], and pRL-TK was 2 μg, 10 μg, and 1μg, respectively. After a 24-htransfection, cells were selected and cultured in the medium containing G418 (800 μg·mL^−1) and hygromycin (400 μg·mL^−1) for two weeks. The surviving cells were picked and expanded as HEK293-CB2R cells.
Several aspects of the high-throughput screening system were optimized to ensure efficient and accurate application of the system for high-throughput data collection. To conduct high-throughput assays in 96-well plates, the number of cells seeded per well, incubation time, drug and AM630 concentrations, and the DMSO content were optimized. The dual luciferase assay was performed as described previously. […] Subsequently, the quantitative evaluation indexes of the high-throughput screening system, including the signal-to-background ratio, S/B = Msignal/Mbackground; signal window, SW = Msignal − Mbackground; signal-to-noise ratio, S/N = (Msignal − Mbackground)/SDbackground; signal background coefficient of variation, CV(%) = 100 × SDsignal/Msignal; and Z’ factor were determined to ensure its efficient and accurate application of the system in high-throughput data collection. Here, Z′ = 1 − 3(SDsignal + SDbackground)/|Msignal − Mbackground| [25], where M represents an average of the relative luminescence value and SD is the standard deviation of M.
The HEK293-CB2 cells from 10–40 passages were separately inoculated into 96-well plates at 5 × 10^3 cells per well. […] The results were expressed as relative luminescence values.
The HEK293-CB2 cells were inoculated on a 96-well culture plate with a density of 5 × 10^3 cells per well. […] The relative luminescence value was used to express the expression of CB2R.
Furthermore, the activation of the compounds on CB2R was also verified by using the CB2R inverse agonist AM630. The HEK293-CB2 cells were inoculated on a 6-well culture plate at a density of 5 × 10^4 cells per well. […] The expression of the CB2R gene is expressed by the relative luminescence value.
Background: Reporter assays use an easily measured gene product as a stand-in for the process of interest.

The test system of a further data set is RAW264.7 macrophages. The data set can be described thus: viability of RAW264.7 macrophages (CCK8). The following applies: 1 μM, three days. In kind it is cell-based, murine. On the procedure:
The murine macrophage RAW264.7 cell line, which has the potential to differentiate into osteoclasts under the induction of RANKL, was obtained from the Cell Bank of the Chinese Academy of Sciences (Shanghai, China). The cells were cultured in DMEM containing 10% (v/v), 1% (v/v) penicillin, and streptomycin (Beyotime, Shanghai, China) at 37 °C in humidified air with 5% CO2, and then subcultured every two days. For induction of the osteoclasts, RAW264.7 cells were incubated with 25 ng·mL^−1 RANKL for 72 h. Osteoclasts were identified by TRAP staining.
RAW264.7 cells were inoculated in a 96-well plate at a density of 1 × 10^4 cells per well. After a 24-h culture at 37 °C, cells were treated with the test compounds for 48 h and cell viability was determined with the CCK-8 kit according to the instructions. RAW264.7 cells were inoculated on a 96-well culture plate at a density of 1 × 10^4 cells per well, induced with […] of nuclear factor-κB receptor activator ligand (RANKL) to differentiate into osteoclasts for 72 h. […] The reaction was terminated with 1 mol·L^−1 of NaOH solution (100 μL per well) and the absorbance was determined at a wavelength of 405 nm. […]

Data set [1] deals with osteoclasts derived from RAW264.7 cells. Description: F-actin ring formation assay in osteoclasts. It is filed as cell-based, murine. How it is done:
RAW264.7 cells were incubated in a confocal culture dish (diameter, 35 mm) at adensity of 5 × 10^4 cells·dish^−1 for 24 h, treated with 25 ng·mL^−1 RANKL and the screened compounds for five days, fixed with 4% paraformaldehyde for 30 min, stained with 5 μg·mL^−1 rhodamine-conjugated phalloidin (Sigma-Aldrich Chemical Co.) at 37 °C for 40 min, washed with PBS again, and stained again with 4′,6-diamidino-2-phenylindole (DAPI, Beyotime, Shanghai, China) for 10 min at room temperature (Li et al., 2018). The F-actin ring of the osteoclasts was observed under a fluorescent microscope (Axiovert 200, Carl Zeiss, Oberkochen, Germany). The fluorescence images of the cells were processed using Zeiss ZEN software.

T1 sequence (P34972 whole entry): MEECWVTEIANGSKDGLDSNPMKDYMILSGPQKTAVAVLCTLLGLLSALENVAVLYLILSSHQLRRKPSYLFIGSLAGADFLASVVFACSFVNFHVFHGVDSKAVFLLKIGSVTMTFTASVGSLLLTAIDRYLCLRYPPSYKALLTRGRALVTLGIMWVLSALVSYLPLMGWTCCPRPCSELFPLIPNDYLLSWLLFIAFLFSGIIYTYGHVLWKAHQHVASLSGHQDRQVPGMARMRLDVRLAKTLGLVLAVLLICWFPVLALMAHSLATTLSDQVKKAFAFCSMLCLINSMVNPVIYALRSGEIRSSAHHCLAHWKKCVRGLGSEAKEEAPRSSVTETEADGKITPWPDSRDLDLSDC

Take `CCCCCCC(C)(C)c1cc(OC)c([C@@H]2C=C(CO)[C@@H]3C[C@H]2C3(C)C)c(OC)c1` [HU308]: on CB2R, the “luciferase activity of HEK293-CB2 cells of passages 10, 15, 25, 35 and 40” value is listed as “significantly increased”. In addition, the “viability of RAW264.7 macrophages” value with RAW264.7 macrophages is “had no inhibitory effects on the viability”. In data set [1] (1 μM AM630), the “reversal of the F-actin ring effect by AM630” value was “could also be reversed by AM630”. The “formation of the F-actin ring in osteoclasts” value in data set [1] (five-day treatment, phalloidin staining) is recorded as “decreased the formation of the F-actin ring”.
